Molecular target: Platelet-activating factor receptor (Oryctolagus cuniculus)
Assay: In vitro antagonist activity against platelet activating factor (PAF) receptor, using washed rabbit platelets

Structure (SMILES) | IC50
Cc1nc2cnccc2n1-c1ccc(C2=Nc3c(-c4ccncc4)nn(C)c3N(C)C(=O)C2)cc1 [1,8-Dimethyl-5-[4-(2-methyl-imidazo[4,5-c]pyridin-1-yl)-phenyl]-3-pyridin-4-yl-6,8-dihydro-1H-pyrazolo[3,4-b][1,4]diazepin-7-one] | 5.2 nM
Cc1nc2cnccc2n1-c1ccc(C2=Nc3c(C4CCCCC4)nn4c3N(CCCC4)C(=O)C2)cc1 [3-Cyclohexyl-6-[4-(2-methyl-imidazo[4,5-c]pyridin-1-yl)-phenyl]-1,2,5,9-tetraaza-tricyclo[7.4.1.0*4,14*]tetradeca-2,4(14),5-trien-8-one] | 0.4 nM
Cc1nc2cnccc2n1-c1ccc(C2=Nc3cc(Cl)c(Cl)cc3-n3ccnc3C2)cc1 [8,9-Dichloro-5-[4-(2-methyl-imidazo[4,5-c]pyridin-1-yl)-phenyl]-4H-3,6,10b-triaza-benzo[e]azulene] | 1.7 nM
Cc1cc2c(cc1C)-n1nnnc1CC(c1ccc(-n3c(C)nc4cnccc43)cc1)=N2 [8,9-Dimethyl-5-[4-(2-methyl-imidazo[4,5-c]pyridin-1-yl)-phenyl]-4H-1,2,3,6,10b-pentaaza-benzo[e]azulene] | 11 nM
Cc1nc2cnccc2n1-c1ccc(C2=Nc3c(-c4cccs4)nn(C)c3N(C)C(=O)C2)cc1 [1,8-Dimethyl-5-[4-(2-methyl-imidazo[4,5-c]pyridin-1-yl)-phenyl]-3-thiophen-2-yl-6,8-dihydro-1H-pyrazolo[3,4-b][1,4]diazepin-7-one] | 1.5 nM
Cc1nn(C)c2c1N=C(c1ccc(-n3c(C)nc4cnccc43)cc1)CC(=O)N2 [1,3-Dimethyl-5-[4-(2-methyl-imidazo[4,5-c]pyridin-1-yl)-phenyl]-6,8-dihydro-1H-pyrazolo[3,4-b][1,4]diazepin-7-one] | 26 nM
Cc1nc2cnccc2n1-c1ccc(C2=Nc3c(-c4ccccc4)nn(C)c3NC(=O)C2)cc1 [1-Methyl-5-[4-(2-methyl-imidazo[4,5-c]pyridin-1-yl)-phenyl]-3-phenyl-6,8-dihydro-1H-pyrazolo[3,4-b][1,4]diazepin-7-one] | 0.6 nM
Cc1cc2c(cc1C)-n1c(C)nnc1CC(c1ccc(-n3c(C)nc4cnccc43)cc1)=N2 [1,8,9-Trimethyl-5-[4-(2-methyl-imidazo[4,5-c]pyridin-1-yl)-phenyl]-4H-2,3,6,10b-tetraaza-benzo[e]azulene] | 2.4 nM
Cc1cc2c(cc1C)-n1ccnc1CC(c1ccc(-n3c(C)nc4cnccc43)cc1)=N2 [8,9-Dimethyl-5-[4-(2-methyl-imidazo[4,5-c]pyridin-1-yl)-phenyl]-4H-3,6,10b-triaza-benzo[e]azulene] | 1.3 nM
Cc1cc2c(cc1C)-n1cnnc1CC(c1ccc(-n3c(C)nc4cnccc43)cc1)=N2 [8,9-Dimethyl-5-[4-(2-methyl-imidazo[4,5-c]pyridin-1-yl)-phenyl]-4H-2,3,6,10b-tetraaza-benzo[e]azulene] | 2.3 nM
Cc1nn(C)c2c1NC(=O)CC(c1ccc(-n3c(C)nc4cnccc43)cc1)=N2 [1,3-Dimethyl-7-[4-(2-methyl-imidazo[4,5-c]pyridin-1-yl)-phenyl]-4,6-dihydro-1H-pyrazolo[3,4-b][1,4]diazepin-5-one] | 1 nM
Cc1nc2cnccc2n1-c1ccc(C2=Nc3c(-c4ccccc4)nn(C)c3N(C)C(=O)C2)cc1 [1,8-Dimethyl-5-[4-(2-methyl-imidazo[4,5-c]pyridin-1-yl)-phenyl]-3-phenyl-6,8-dihydro-1H-pyrazolo[3,4-b][1,4]diazepin-7-one] | 0.5 nM
Cc1nc2cnccc2n1-c1ccc(C2=Nc3c(C4CCCCC4)nn(C)c3N(C)C(=O)C2)cc1 [3-Cyclohexyl-1,8-dimethyl-5-[4-(2-methyl-imidazo[4,5-c]pyridin-1-yl)-phenyl]-6,8-dihydro-1H-pyrazolo[3,4-b][1,4]diazepin-7-one] | 0.7 nM
Cc1cn2c(n1)CC(c1ccc(-n3c(C)nc4cnccc43)cc1)=Nc1cc(Cl)c(Cl)cc1-2 [8,9-Dichloro-2-methyl-5-[4-(2-methyl-imidazo[4,5-c]pyridin-1-yl)-phenyl]-4H-3,6,10b-triaza-benzo[e]azulene] | 0.3 nM
Cc1nc2cnccc2n1-c1ccc(C2=Nc3c(-c4cccnc4)nn(C)c3N(C)C(=O)C2)cc1 [1,8-Dimethyl-5-[4-(2-methyl-imidazo[4,5-c]pyridin-1-yl)-phenyl]-3-pyridin-3-yl-6,8-dihydro-1H-pyrazolo[3,4-b][1,4]diazepin-7-one] | 2.4 nM
Cc1nc2cnccc2n1-c1ccc(C2=Nc3c(C(C)C)nn(C)c3N(C)C(=O)C2)cc1 [3-Isopropyl-1,8-dimethyl-5-[4-(2-methyl-imidazo[4,5-c]pyridin-1-yl)-phenyl]-6,8-dihydro-1H-pyrazolo[3,4-b][1,4]diazepin-7-one] | 3.5 nM
Cc1nc2cnccc2n1-c1ccc(C2=Nc3c(-c4ccccn4)nn(C)c3N(C)C(=O)C2)cc1 [1,8-Dimethyl-5-[4-(2-methyl-imidazo[4,5-c]pyridin-1-yl)-phenyl]-3-pyridin-2-yl-6,8-dihydro-1H-pyrazolo[3,4-b][1,4]diazepin-7-one] | 14 nM
Cc1cnc2n1-c1cc(Cl)c(Cl)cc1N=C(c1ccc(-n3c(C)nc4cnccc43)cc1)C2 [8,9-Dichloro-1-methyl-5-[4-(2-methyl-imidazo[4,5-c]pyridin-1-yl)-phenyl]-4H-3,6,10b-triaza-benzo[e]azulene] | 1.2 nM
Cc1nc2cnccc2n1-c1ccc(C2=Nc3c(c(-c4ccccc4)nn3C)NC(=O)C2)cc1 [1-Methyl-7-[4-(2-methyl-imidazo[4,5-c]pyridin-1-yl)-phenyl]-3-phenyl-4,6-dihydro-1H-pyrazolo[3,4-b][1,4]diazepin-5-one] | 2.7 nM
Cc1nc2cnccc2n1-c1ccc(C2=Nc3c(CO)nn(C)c3N(C)C(=O)C2)cc1 [3-Hydroxymethyl-1,8-dimethyl-5-[4-(2-methyl-imidazo[4,5-c]pyridin-1-yl)-phenyl]-6,8-dihydro-1H-pyrazolo[3,4-b][1,4]diazepin-7-one] | 14 nM
Cc1nc2cnccc2n1-c1ccc(C2=Nc3c(COCC(C)C)nn(C)c3N(C)C(=O)C2)cc1 [3-Isobutoxymethyl-1,8-dimethyl-5-[4-(2-methyl-imidazo[4,5-c]pyridin-1-yl)-phenyl]-6,8-dihydro-1H-pyrazolo[3,4-b][1,4]diazepin-7-one] | 0.8 nM
Cc1nn(C)c2c1N=C(c1ccc(-n3c(C)nc4cnccc43)cc1)CC(=O)N2C [1,3,8-Trimethyl-5-[4-(2-methyl-imidazo[4,5-c]pyridin-1-yl)-phenyl]-6,8-dihydro-1H-pyrazolo[3,4-b][1,4]diazepin-7-one] | 17 nM
Cc1cc2c(cc1C)-n1c(n[nH]c1=O)CC(c1ccc(-n3c(C)nc4cnccc43)cc1)=N2 [8,9-Dimethyl-5-[4-(2-methyl-imidazo[4,5-c]pyridin-1-yl)-phenyl]-2,4-dihydro-2,3,6,10b-tetraaza-benzo[e]azulen-1-one] | 55 nM
Cc1cc(C)c2c(n1)N=C(c1ccc(-n3c(C)nc4cnccc43)cc1)CC(=O)N2 [7,9-Dimethyl-4-[4-(2-methyl-imidazo[4,5-c]pyridin-1-yl)-phenyl]-1,3-dihydro-pyrido[3,4-b][1,4]diazepin-2-one] | 21 nM
